The text below walks through data of patent US20200069691A1, “HETEROCYCLIC COMPOUNDS AS HIV PROTEASE INHIBITORS” (Merck Sharp & Dohme Corp., priority 2016, published 2020).

The assay deals with T1, wild-type HIV-1 protease (Human immunodeficiency virus type 1 group M subtype B, UniProt P04585).
T1 construct: Escherichia coli expressed wild-type HIV-1 protease protein
In words: Assay for Inhibition of Microbial Expressed HIV Protease (peptide substrate cleavage, LC-MS/MS readout). It is filed as biochemical. Conditions: E. coli expressed wild-type HIV-1 protease, mean of at least two independent experiments, read-out: HIV Pr Enzyme HIV1 PR IC50. The gist of the method: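 Cleavage of Val-Ser-Gln-Asn-(β-naphthyl)Ala-Pro-Ile-Val (400 μM) by recombinant HIV-1 protease ([…]) ran 1 h at 30 °C after a 30 min room-temperature inhibitor preincubation in 50 mM sodium acetate pH 5.5. Product peak areas by LC-MS/MS gave inhibition; values average at least two independent runs.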

By IC50 is commonly meant the concentration at which inhibition is half-maximal.

`N=C1N[C@](CCC2CC2)(c2ccc(F)cc2)C(=O)N1C(CCc1ccccc1)c1ccc(C(F)(F)F)c(C(=O)N2CCn3c(nnc3C(F)(F)F)C2)c1` (stereo partly drawn) [Compound 37, (5R)-5-(2-cyclopropylethyl)-5-(4-fluorophenyl)-2-imino-3-{3-phenyl-1-[4-(trifluoromethyl)-3-{[3-(trifluoromethyl)-5,6-dihydro-[1,2,4]triazolo[4,3-a]pyrazin-7(8H)-yl]carbonyl}phenyl]propyl} imidazolidin-4-one]: the IC50 was determined as 3.89 nM.

Consider `N=C1N[C@](CCCC(F)(F)F)(c2ccc(F)cc2)C(=O)N1Cc1ccc(C(F)(F)F)c(C(=O)N2Cc3cnc(-c4ccsc4)nc3C2)c1` [Compound 63, (5R)-5-(4-fluorophenyl)-2-imino-3-{3-[(2-thiophen-3-yl-5,7-dihydro-6H-pyrrolo[3,4-d]pyrimidin-6-yl)carbonyl]-4-(trifluoromethyl)-benzyl}-5-(4,4,4-trifluorobutyl)-imidazolidin-4-one], for which the IC50 turned out to be 6.94 nM.

Take `CC(C)CC1(c2cccc(F)c2)NC(=N)N(Cc2cccc(C(=O)N3Cc4nccnc4C3)c2)C1=O` (stereo not shown) [Compound 210, 3-[3-(5,7-dihydro-6H-pyrrolo[3,4-b]pyrazin-6-ylcarbonyl)benzyl]-5-(3-fluorophenyl)-2-imino-5-(2-methylpropyl)imidazolidin-4-one]: the IC50 is 9.12 nM.

For the compound `C[C@H](c1cccc(C(=O)N2Cc3ccccc3C2)c1)N1C(=N)NC(c2ccccc2)(c2ccccc2)C1=O` [Compound 187, 3-{(1R)-1-[3-(1,3-dihydro-2H-isoindol-2-ylcarbonyl)phenyl]ethyl}-2-imino-5,5-diphenylimidazolidin-4-one], the IC50 was 3.67 nM.

For `CC(C)CCC1(c2ccccc2)NC(=N)N(Cc2cccc(C(=O)N3CCC(n4c(=O)[nH]c5ccccc54)CC3)c2)C1=O` (stereo not shown) [Compound 314, 1-{1-[(3-{[2-imino-4-(3-methylbutyl)-5-oxo-4-phenylimidazolidin-1-yl]methyl}phenyl)carbonyl]piperidin-4-yl}-1,3-dihydro-2H-benzimidazol-2-one], the IC50 was found to be 52.1 nM.

In the case of `CC(C)CCC(c1ccc(C(F)(F)F)c(C(=O)N2Cc3nccnc3C2)c1)N1C(=N)N[C@](CCC(C)C)(c2ccccc2)C1=O` (stereo partly drawn) [Compound 9, (5R)-3-{1-[3-(5,7-dihydro-6H-pyrrolo[3,4-b]pyrazin-6-ylcarbonyl)-4-(trifluoromethyl)phenyl]-4-methylpentyl}-2-imino-5-(3-methylbutyl)-5-phenylimidazolidin-4-one], the IC50 is 0.6 nM.

`N=C1NC(c2ccc(F)cc2)(c2ccc(F)cc2)C(=O)N1Cc1cncc(C(=O)N2CCN(C(=O)OCCOCc3ccccc3)CC2)c1` [Compound 391, 2-(benzyloxy)ethyl 4-[(5-{[4,4-bis(4-fluorophenyl)-2-imino-5-oxoimidazolidin-1-yl]methyl}pyridin-3-yl)carbonyl]piperazine-1-carboxylate]: the IC50 is 13.6 nM.

Consider `COC(=O)N1CCN(C(=O)c2cccc(CN3C(=N)NC(c4ccc(F)cc4)(c4ccc(F)cc4)C3=O)c2)CC1` [Compound 305, methyl 4-[(3-{[4,4-bis(4-fluorophenyl)-2-imino-5-oxoimidazolidin-1-yl]methyl}phenyl)carbonyl] piperazine-1-carboxylate], for which the half-maximal inhibitory concentration (IC50) turned out to be 64.1 nM.

`N=C1NC(c2ccc(F)cc2)(c2cccc(C(N)=O)c2)C(=O)N1Cc1cccc(C(=O)N2Cc3ccccc3C2)c1` (stereo not shown) [Compound 294, 3-{1-[3-(1,3-dihydro-2H-isoindol-2-ylcarbonyl)benzyl]-4-(4-fluorophenyl)-2-imino-5-oxoimidazolidin-4-yl}benzamide]: the IC50 turned out to be 39.8 nM.

Turning to `CC(C)CCC1(c2ccccc2)NC(=N)N(Cc2cccc(C(=O)N3CCNC(=O)C3)c2)C1=O` (stereo not shown) [Compound 351, 4-[(3-{[2-imino-4-(3-methylbutyl)-5-oxo-4-phenylimidazolidin-1-yl]methyl}-phenyl)carbonyl]piperazin-2-one], the IC50 is 86.7 nM.

Turning to `CC(C)CCC1(c2ccccc2)NC(=N)N(Cc2cccc(C(=O)N3Cc4nccnc4C3)c2)C1=O` (stereo not shown) [Compound 193, 3-[3-(5,7-dihydro-6H-pyrrolo[3,4-b]pyrazin-6-ylcarbonyl)benzyl]-2-imino-5-(3-methylbutyl)-5-phenylimidazolidin-4-one], the IC50 stood at 4.89 nM.

For `CC(C)CCC1(c2ccc(F)cc2)NC(=N)N(Cc2ccc(C(F)(F)F)c(C(=O)N3Cc4nccnc4C3)c2)C1=O` (stereo not shown) [Compound 146, 3-[3-(5,7-dihydro-6H-pyrrolo[3,4-b]pyrazin-6-ylcarbonyl)-4-(trifluoromethyl)benzyl]-5-(4-fluorophenyl)-2-imino-5-(3-methylbutyl)imidazolidin-4-one], the IC50 amounted to 4.07 nM.

Turning to `N=C1NC(CCC2CC2)(c2cccc(F)c2)C(=O)N1Cc1ccc(C(F)(F)F)c(C(=O)N2Cc3nccnc3C2)c1` (stereo not shown) [Compound 26, 5-(2-cyclopropylethyl)-3-[3-(5,7-dihydro-6H-pyrrolo[3,4-b]pyrazin-6-ylcarbonyl)-4-(trifluoromethyl)benzyl]-5-(3-fluorophenyl)-2-iminoimidazolidin-4-one], the IC50 came out at 2.85 nM.

For the compound `CC(C)CC1(c2ccccc2)NC(=N)N(Cc2ccc(Cl)c(C(=O)N3Cc4cnc(C#N)nc4C3)c2)C1=O` (stereo not shown) [Compound 364, 6-[(2-chloro-5-{[2-imino-4-(2-methylpropyl)-5-oxo-4-phenylimidazolidin-1-yl]methyl}phenyl)carbonyl]-6,7-dihydro-5H-pyrrolo[3,4-d]pyrimidine-2-carbonitrile], the IC50 turned out to be 4.17 nM.

Regarding `N=C1N[C@](CCCC(F)(F)F)(c2ccc(F)cc2)C(=O)N1Cc1ccc(C(F)(F)F)c(C(=O)N2Cc3cnc(-c4ccc(F)cc4)nc3C2)c1` [Compound 97, (5R)-5-(4-fluorophenyl)-3-[3-{[2-(4-fluorophenyl)-5,7-dihydro-6H-pyrrolo[3,4-d]pyrimidin-6-yl]carbonyl}-4-(trifluoromethyl)-benzyl]-2-imino-5-(4,4,4-trifluorobutyl)imidazolidin-4-one], the IC50 was determined as 20.5 nM.

Take `N=C1NC(CCC2CC2)(c2ccc(C(F)(F)F)cc2)C(=O)N1Cc1ccc(C(F)(F)F)c(C(=O)N2CCn3c(nnc3C(F)(F)F)C2)c1` (stereo not shown) [Compound 131, 5-(2-cyclopropylethyl)-2-imino-5-[4-(trifluoromethyl)phenyl]-3-[4-(trifluoromethyl)-3-{[3-(trifluoromethyl)-5,6-dihydro-[1,2,4]triazolo[4,3-a]pyrazin-7(8H)-yl]carbonyl}benzyl] imidazolidin-4-one]: the IC50 was 84.9 nM.

Turning to `N=C1NC(c2ccccc2)(c2ccccc2)C(=O)N1Cc1cccc(C(=O)N2CCc3nccnc3C2)c1` [Compound 295, 3-[3-(7,8-dihydropyrido[3,4-b]pyrazin-6(5H)-ylcarbonyl)benzyl]-2-imino-5,5-diphenylimidazolidin-4-one], the IC50 was 40.1 nM.

For the compound `CC1CN(C(=O)c2cccc(CN3C(=N)NC(c4ccccc4)(c4ccccc4)C3=O)c2)Cc2nnc(C(F)(F)F)n21` (stereo not shown) [Compound 282, 2-imino-3-(3-{[5-methyl-3-(trifluoromethyl)-5,6-dihydro[1,2,4]triazolo[4,3-a]pyrazin-7(8H)-yl]carbonyl}benzyl)-5,5-diphenylimidazolidin-4-one], the concentration for half-maximal inhibition (IC50) came out at 31.4 nM.

Consider `CC(C)CCC1(c2ccc(F)cc2)NC(=N)N(Cc2cccc(C(=O)N3Cc4ccccc4C3)c2)C1=O` (stereo not shown) [Compound 229, 3-[3-(1,3-dihydro-2H-isoindol-2-ylcarbonyl)benzyl]-5-(4-fluorophenyl)-2-imino-5-(3-methylbutyl)imidazolidin-4-one], for which the concentration for half-maximal inhibition (IC50) came to 13.1 nM.

For the compound `N=C1N[C@](CCC2CC2)(c2ccc(F)cc2)C(=O)N1[C@@H]1CCCc2ccc(C(=O)N3Cc4nccnc4C3)cc21` [Compound 129, (5R)-5-(2-cyclopropylethyl)-3-[(1R)-7-(5,7-dihydro-6H-pyrrolo[3,4-b]pyrazin-6-ylcarbonyl)-1,2,3,4-tetrahydronaphthalen-1-yl]-5-(4-fluorophenyl)-2-iminoimidazolidin-4-one], the IC50 was 70.8 nM.

Turning to `COc1ccc(CN2C(=N)NC(c3ccccc3)(c3ccccc3)C2=O)cc1C(=O)N1Cc2ccccc2C1` [Compound 371, 3-[3-(1,3-dihydro-2H-isoindol-2-ylcarbonyl)-4-methoxybenzyl]-2-imino-5,5-diphenylimidazolidin-4-one], the IC50 stood at 29.5 nM.

As to `N=C1NC(c2ccc(F)cc2)(c2ccc(F)cc2)C(=O)N1Cc1cccc(C(=O)N2CCC(n3c(=O)[nH]c4ncccc43)CC2)c1` [Compound 332, 1-{1-[(3-{[4,4-bis(4-fluorophenyl)-2-imino-5-oxoimidazolidin-1-yl]methyl}phenyl)carbonyl]piperidin-4-yl}-1,3-dihydro-2H-imidazo[4,5-b]pyridin-2-one], the IC50 turned out to be 68 nM.

Turning to `CC1(C)CCN(C(=O)c2cc(CN3C(=N)NC(c4ccc(F)cc4)(c4ccc(F)cc4)C3=O)ccc2C(F)(F)F)C1` [Compound 181, 3-{3-[(3,3-dimethylpyrrolidin-1-yl)carbonyl]-4-(trifluoromethyl)benzyl}-5,5-bis(4-fluorophenyl)-2-iminoimidazolidin-4-one], the IC50 amounted to 89.8 nM.

Regarding `CC(C)CC1(c2ccccc2)NC(=N)N(Cc2ccc(C(F)(F)F)c(C(=O)N3CCN(C)C(=O)C3)c2)C1=O` (stereo not shown) [Compound 156, 4-{[5-{[2-imino-4-(2-methylpropyl)-5-oxo-4-phenylimidazolidin-1-yl]methyl}-2-(trifluoromethyl)phenyl]carbonyl}-1-methylpiperazin-2-one], the IC50 amounted to 13.5 nM.

Consider `CCCC1(c2ccccc2)NC(=N)N(Cc2cccc(C(=O)N3Cc4nccnc4C3)c2)C1=O` (stereo not shown) [Compound 278, 3-[3-(5,7-dihydro-6H-pyrrolo[3,4-b]pyrazin-6-ylcarbonyl)benzyl]-2-imino-5-phenyl-5-propylimidazolidin-4-one], for which the IC50 was 182 nM.
